In US20070105790A1, “Pancreatic cancer treatment using Na+/K+ ATPase inhibitors” (Bionaut Pharmaceuticals, Inc., priority 2004, published 2007):
≈ marks a conversion by molar mass, not a printed value. Where two headings read alike, the source gives them in different places.

Assays:
[1] = system: A549 Sentinel Line; experiment: Sentinel Line beta-galactosidase reporter assay (A549); assay type: cell-based; details: 40 hrs; for reporter activity, Gemcitabine-induced stress response: A549 sentinel line, FACS, FIG. 7; for reporter activity / cell death: Sentinel Lines; for reporter activity: FIG. 6
Method: The expression level of beta-galactosidase gene in sentinel lines was determined by using a fluorescent substrate fluorescein di-B-D-Galactopyranside (FDG, Marker Gene Tech, #M0250) introduced into cells by hypotonic shock. Cleavage by beta-galactosidase results in the production of free fluorescein, which is unable to cross the plasma membrane and is trapped inside the beta-gal positive cells. Briefly, the cells to be analyzed are trypsinized, and resuspended in PBS containing 2 mM FDG (diluted from a 10 mM stock prepared in 8:1:1 mixture of water: ethanol: DMSO). The cells were then shocked for 4 minutes at 37° C. and transferred to FACS tubes containing cold 1×PBS on ice. Samples were kept on ice for 30 minutes and analyzed by FACS in FL1 channel.
Sentinel Line cells with beta-galactosidase reporter gene were plated at 1×10^5 cells/10 cm dish. […] After 40 hrs, the cells were trypsinized and the expression level of reporter gene was determined by FDG loading.
The reporter activity was measured by FACS analysis.

[2] = system: pancreatic cancer; details: cited from earlier work
[3] = system: cancer of the pancreas; details: previously treated with 5-FU; cited from earlier work
[4] = system: cancer of the pancreas; details: previously untreated patients; cited from earlier work
[5] = system: cats; details: cited from earlier work
[6] = system: cancer cell lines; experiment: IC50 across several different cancer cell lines; assay type: cell-based; details: called predicted
[7] = cited from earlier work
[8] = system: HIF-1α; experiment: HIF-1α induced by L-mimosone under normoxia in Hep3B cells; assay type: cell-based
Method: Abundance of HIF-1α and β-actin was determined by western blotting.

[9] = cited from earlier work; remark: listed apart in the source
[10] = system: VEGF; experiment: VEGF secretion by tumor cells; assay type: cell-based; details: FIG. 5
[11] = system: advanced pancreatic cancer; details: in vivo; cited from earlier work
[12] = system: pancreatic carcinoma cells carrying a K-Ras mutation; details: cited from earlier work
[13] = system: end-stage pancreatic cancer; details: cited from earlier work
[14] = target: farnesyl protein transferase (FPTase) (Homo sapiens, UniProt P49354+P49356); details: cited from earlier work
Sequence of farnesyl protein transferase (FPTase) (P49356 whole entry, one chain of several): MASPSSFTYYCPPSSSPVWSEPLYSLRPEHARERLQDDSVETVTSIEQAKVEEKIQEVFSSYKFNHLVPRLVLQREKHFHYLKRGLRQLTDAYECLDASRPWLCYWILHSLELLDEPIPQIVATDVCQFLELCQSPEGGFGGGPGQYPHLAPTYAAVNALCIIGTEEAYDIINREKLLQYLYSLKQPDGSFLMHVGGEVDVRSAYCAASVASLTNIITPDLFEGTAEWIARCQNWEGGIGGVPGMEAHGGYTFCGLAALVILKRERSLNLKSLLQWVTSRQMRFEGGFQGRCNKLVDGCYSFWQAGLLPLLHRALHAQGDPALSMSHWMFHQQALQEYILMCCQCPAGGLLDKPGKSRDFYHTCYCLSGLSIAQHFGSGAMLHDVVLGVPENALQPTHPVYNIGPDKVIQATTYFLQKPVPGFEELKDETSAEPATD

[15] = system: pancreatic tumors; details: cited from earlier work
[16] = target: geranylgeranyl protein transferase (GGPTase) (Homo sapiens, UniProt P49354+P53609); details: cited from earlier work
Sequence of geranylgeranyl protein transferase (GGPTase) (P53609 whole entry, one chain of several): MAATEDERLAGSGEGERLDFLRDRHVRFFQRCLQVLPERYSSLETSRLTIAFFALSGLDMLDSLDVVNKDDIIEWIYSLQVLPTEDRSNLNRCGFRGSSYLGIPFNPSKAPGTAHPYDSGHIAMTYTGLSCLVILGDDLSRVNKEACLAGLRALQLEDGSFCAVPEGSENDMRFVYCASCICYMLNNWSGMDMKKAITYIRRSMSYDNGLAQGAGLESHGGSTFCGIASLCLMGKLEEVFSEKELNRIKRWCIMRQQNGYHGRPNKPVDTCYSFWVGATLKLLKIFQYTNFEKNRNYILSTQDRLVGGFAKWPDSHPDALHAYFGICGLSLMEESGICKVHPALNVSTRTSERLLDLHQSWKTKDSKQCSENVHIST

[17] = system: pancreatic cancer; details: cited from earlier work; remark: listed apart in the source
[18] = system: pancreatic cancer; details: 40 patients; cited from earlier work
[19] = system: C38 colon adenocarcinoma and PO3 pancreatic ductal adenocarcinoma; details: in vivo; cited from earlier work
[20] = system: rat mammary tumors induced by DMBA; details: relative to control group; cited from earlier work
[21] = system: pancreatic lesions; details: cited from earlier work

Q: Which “reporter activity, Gemcitabine-induced stress response” value [1] does the source give for `Nc1ccn([C@@H]2O[C@H](CO)[C@@H](O)C2(F)F)c(=O)n1` [Gemcitabine] here?
A: elevated reporter activity

Q: What about the “patients with clinical benefit” value ([2]; gemcitabine alone) of the same compound?
A: 20-30%

Q: And the 1-year survival rate ([2]; human, in vivo)?
A: 18%

Q: What about the “patients alive at 1 year” value [3] of the same compound?
A: 1 in 25

Q: And the “patients with symptom improvement for at least 1 month” value [3]?
A: 1 in 4

Q: What about the “survival of the typical patient” value [3] of the same compound?
A: 4 months

Q: And the “patients alive at 1 year after starting therapy” value [4]?
A: 1 in 5

Q: And the “survival of the typical patient” value [4]?
A: about 6 months

Q: Which reporter activity [1] does the source give for `COc1cc2ncnc(Nc3ccc(F)c(Cl)c3)c2cc1OCCCN1CCOCC1` [Iressa] here?
A: reduction in reporter activity

Q: With `C[C@@H]1OC(OC2C=C3CCC4C(CC[C@]5(C)[C@@H](c6ccc(=O)oc6)CC[C@]45O)[C@@]3(C)CC2)[C@H](O)[C@H](O)[C@H]1O` (stereo partly drawn) [BNC-4, proscillaridin] as the compound, how does the “reporter activity, Gemcitabine-induced stress response” value [1] read?
A: significantly shift the reporter activity to the left

Q: What about the “toxicity, duodenal administration” value [5] of the same compound?
A: 1.05 mg/kg

Q: What about the IC50 [6] of the same compound?
A: 2 to 8 ng/mL (≈ 0.00377 to 0.0151 µM)

Q: And the “drug and metabolites excreted by the bile” value ([7]; in vivo)?
A: Greater than 99%

Q: And the “measurable unconjugated drug as share of administered quantity” value ([7]; oral administration)?
A: 7%

Q: What about the “time of second, longer-lasting peak” value ([7]; oral) of the same compound?
A: about 1 hour

Q: And the “time of third peak after dosing” value ([7]; oral)?
A: about 10 hours

Q: And the “HIF-1α accumulation by L-mimosone” value ([8]; 200 μM L-mimosone, 18 h)?
A: eliminated HIF-1α accumulation

Q: And the “HIF-1α accumulation by L-mimosone” value ([8]; at the low concentration tested)?
A: did not appear to have an effect

Q: What about the “tolerance in cancer patients” value ([9]; 0.5 mg/d i.v. for 4 d before surgery, 50 patients) of the same compound?
A: well tolerated by all cancer patients

Q: And the “patients taken off treatment for negative side effects” value ([9]; 1067 patients, up to 3 years)?
A: 0.7%

Q: What about the “reported cases in which therapy could be resumed” value ([9]; after a brief hiatus) of the same compound?
A: > 95%

Q: What about the “doses producing typical intoxication symptoms” value ([9]; healthy individuals) of the same compound?
A: above 4 mg p.o./d

Q: And the “secretion of the angiogenesis factor VEGF” value [10]?
A: inhibits

Q: And the “serum levels at the maximum toxic dose (MTD)” value (mice)?
A: about 518 (±121) ng/ml

Q: And the “toxic serum concentration at day 1” value (mice)?
A: about 518+121 ng/ml

Q: What about the “steady state serum level at which anti-tumor activity was observed” value (xenograft nude mouse model) of the same compound?
A: about 50 ng/mL

Q: With `C[C@@H]1O[C@@H](O[C@H]2C[C@@H](O)[C@]3(CO)[C@H]4[C@H](O)C[C@]5(C)[C@@H](C6=CC(=O)OC6)CC[C@]5(O)[C@@H]4CC[C@]3(O)C2)[C@H](O)[C@H](O)[C@H]1O` [BNC-1, ouabain] as the compound, how does the “toxicity, duodenal administration” value [5] read?
A: 5.3 mg/kg

Q: And the IC50 [6]?
A: 9 to 35 ng/mL (≈ 0.0154 to 0.0599 µM)

Q: What about the “secretion of the angiogenesis factor VEGF” value [10] of the same compound?
A: inhibits

Q: What about the “toxic serum concentration at day 1” value (mice) of the same compound?
A: about 50+21 ng/ml

Q: And the “therapeutic serum concentration required to achieve >60% TGI” value (steady state delivery in mice)?
A: about 20+15 ng/ml

Q: What does the source list for `Cn1c(=O)c2c(ncn2C)n(C)c1=O` [caffeine]?
A: median duration of survival [11]: 5 months; patients with objective responses [11]: 5.5%

Q: For `C=C(C)[C@H]1CC=C(C)CC1` [Limonene], which growth reduction [12] is on record?
A: approximately 50%

Q: Which cell death [1] does the source give for `CC(=O)O[C@H]1C(=O)[C@@]2(C)[C@H]([C@H](OC(=O)c3ccccc3)[C@]3(O)C[C@H](OC(=O)[C@H](O)[C@@H](NC(=O)c4ccccc4)c4ccccc4)C(C)=C1C3(C)C)[C@]1(OC(C)=O)CO[C@@H]1C[C@@H]2O` [paclitaxel] here?
A: increases

Q: What about the reporter activity [1] of the same compound?
A: increases

Q: Which results are given for `CC[C@@]1(O)C(=O)OCc2c1cc1n(c2=O)Cc2cc3c([N+](=O)[O-])cccc3nc2-1` [Rubitecan, 9-nitrocamptothecin]?
A: nonresponders ([13]; 60 patients): 36.6%; patients who responded favorably ([13]; 60 patients): 31.7%; patients with stabilized disease ([13]; 60 patients): 31.7%; survival ([13]; nonresponders): 6.8 months; median survival ([13]; responders): 18.6 months; median survival ([13]; stabilized disease): 9.7 months

Q: With `C=C(C)[C@@H]1CC=C(CO)CC1` [Perillyl alcohol] as the compound, how does the “inhibition of Ras prenylation” value [14] read?
A: 17%

Q: And the tumors completely regressed ([15]; hamster, in vivo)?
A: 16%

Q: What about the “growth of pancreatic tumors” value ([15]; versus controls) of the same compound?
A: less than half that of controls

Q: And the “inhibition of RhoA prenylation” value [16]?
A: 28%

Q: With `O=c1[nH]cc(F)c(=O)[nH]1` [5-FU, 5-fluorouracil] as the compound, how does the response rate [17] read?
A: less than 20%

Q: And the “patients alive at 1 year after starting therapy” value [4]?
A: 1 in 50

Q: What does the source list for `CC(=O)O[C@@]12CO[C@@H]1C[C@H](O)[C@@]1(C)C(=O)[C@H](O)C3=C(C)[C@@H](OC(=O)[C@H](O)[C@@H](NC(=O)OC(C)(C)C)c4ccccc4)C[C@@](O)([C@@H](OC(=O)c4ccccc4)[C@H]21)C3(C)C` [docetaxel, Docetaxel]?
A: median duration of response [18]: 5.1 months; partial response [18]: 15%; stable disease [18]: 38%; complete regressions [19]: 80%

Q: Which results are given for `N.N.O=C([O-])C1(C(=O)[O-])CCC1.[Pt+2]` [Carboplatin]?
A: cell death [1]: increases; reporter activity [1]: increases

Q: With `CC(C)Cc1ccc(C(C)C(=O)O)cc1` (stereo not drawn) [Ibuprofen] as the compound, how does the “reduction in incidence of breast tumors” value [20] read?
A: 40%

Q: What about the “reduction in multiplicity of breast tumors” value [20] of the same compound?
A: 52%

Q: Which “hyperplastic and premalignant lesions” value ([21]; 8.6 in high-fat group) does the source give for `CN(C)C(=N)N=C(N)N` [Metformin] here?
A: 1.8 lesions per hamster

Q: And the malignant lesions ([21]; drinking water for life, 50% in high-fat group)?
A: none were found

Q: With `O=C1c2c(O)ccc(O)c2C(=O)c2c(NCCNCCO)ccc(NCCNCCO)c21` [mitoxanthrone, mitoxantrone] as the compound, how does the cell death [1] read?
A: increases

Q: What about the reporter activity [1] of the same compound?
A: increases
